Converted amounts (≈) assume the structure as drawn.
Legend:
E. coli biofilms = assay: Biofilm growth assay (spreading biofilm on semi-solid agar), E. coli; format: cell-based; details: biofilm growth assay, overnight 37° C., vs negative controls, Tables 1-5; for IC85: Escherichia coli, read-out: E. coli: concentration that reduces the area of the spreading biofilm by greater than or equal to 85%
Source text: (§1) “Biofilm Growth Assay” refers to an assay performed on semi-solid agar surface where the bacteria collectively move out from an inoculation point. To those skilled in the art, the act of bacteria collectively moving out from an inoculation point on a semi-solid surface may be referred to as swarming or a spreading biofilm. (Anderson, et al Microbiology, 2003, 149, 37-46; Daniels, et al. FEMS Microbiology Reviews, 2004, 28, 261-289). The procedure to perform this assay is described in detail in the Examples. This type of surface motility by bacteria has been reported in the literature by those skilled in the art. […] These references are incorporated herein by reference in their entirety.
(§2) The biofilm growth assay was carried out to measure swarming or biofilm spreading on semi-solid agar media in round plates (for example, 100×15 mm), also referred to as Petri dishes. For E. coli, the plates contained LB medium with 0.6% agar and 0.5% glucose. P. aeruginosa plates were made with M8 agar supplemented with 0.2% glucose, 100 μM CaCl2, 1 mM MgSO4, and 0.5% Casamino acids. The agar plates of this assay consisted of 0.4% to 0.7% agar (Bacto or Noble agar), although other media may also be used as described in the literature and known to those skilled in the art. Test compounds at the desired concentration were added to the cooled, autoclaved media. Portions of the media were then poured into the plates (20 mL/plate), and the plates allowed to dry at room temperature for approximately 3 to 4 hours. Alternatively, however, plates may be dried in a laminar flow hood for approximately fifteen to twenty minutes. Overnight cultures were grown in a 37° C. shaker in LB (E. coli) or TSB (P. aeruginosa). Plates were inoculated by placing 5 μL of the appropriate overnight culture in the centers of the plates. The plates then were incubated overnight at 37° C. The area of the zone of spreading bacteria was then measured and replicates are averaged. Percent inhibition was calculated as 100×(area without compound−area with compound)/(area without compound). An active compound was considered that which reduces the area of the spreading biofilm compared to negative controls by greater than or equal to 85%. The values shown in Table 1 are the concentrations of compounds (μg/ml) tested in the biofilm growth assay that reduce the area of the spreading biofilm compared to negative controls by greater than or equal to 85% unless noted differently in Table 1. A > (“greater than” symbol) as used in Table 1 is well understood to those skilled in the art as an indication that the listed concentration was not effective at this concentration.
(§3) All of the compounds shown in Tables 2, 3, 4, and 5, below, were prepared semi-synthetically from oleanolic acid, except for Compounds 2 and 3. Compound 2 was prepared from ursolic acid. Compound 3 was prepared from hederagenin, but could also be prepared from an oleanolic acid analog with a hydroxyl at C23 or C24. These compounds were tested in the spreading biofilm assay according to the methods detailed in Example I, above. The values shown in Tables 2, 3, 4, and 5 are the concentrations of compounds tested in the biofilm growth assay that reduce the area of the spreading biofilm compared to negative controls by greater than or equal to 85%.

P. aeruginosa biofilms = assay: Biofilm growth assay (spreading biofilm on semi-solid agar), P. aeruginosa; format: cell-based; details: biofilm growth assay, overnight 37° C., vs negative controls, Tables 1-5; for IC85: Pseudomonas aeruginosa, read-out: P. aeruginosa: concentration that reduces the area of the spreading biofilm by greater than or equal to 85%
Source text: as §1, §2, §3

SMILES	E. coli: concentration that reduces the area of the spreading biofilm by greater than or equal to 85% (E. coli biofilms)	P. aeruginosa: concentration that reduces the area of the spreading biofilm by greater than or equal to 85% (P. aeruginosa biofilms)	IC85 (E. coli biofilms)	IC85 (P. aeruginosa biofilms)
CC1(C)CC[C@]2(C(=O)O)CC[C@]3(C)C(=C(c4ccc(N5CCC(N)C5)nc4)CC4[C@@]5(C)Cc6c(n[nH]c6N)C(C)(C)C5CC[C@]43C)C2C1 (stereo partly drawn) [Example 58, (4a-8,6a8,6bR,13aR)-12-Amino-15-(6-(3-aminopyrrolidin-1-yl)pyridin-3-yl)-2,2,6a,6b,9,9,13a-heptamethyl-2,3,4,4a,5,6,6a,6b,7,8,8a,9,11,13,13a,13b,14,15b-octadecahydro-1H-chryseno[1,2-f]indazole-4-a-carboxylic acid]	2 µg/mL	1 µg/mL		
CC1(C)CC[C@]2(C(=O)O)CC[C@]3(C)C(=CCC4[C@@]5(C)Cc6cc[nH]c6C(C)(C)C5CC[C@]43C)C2C1 (stereo partly shown) [C]			0.5 µg/mL (≈ 1.05 µM)	0.5 µg/mL (≈ 1.05 µM)
CC1(C)CC[C@]2(C(=O)O)CC[C@]3(C)C(=C(c4ccoc4CN4CCOCC4)CC4[C@@]5(C)Cc6c(n[nH]c6N)C(C)(C)[C@@H]5CC[C@]43C)[C@@H]2C1 (stereo partly drawn) [Example 32, (4aS,6aS,6bR,8aR,13aR,15bS)-12-Amino-2,2,6a,6b,9,9,13a-heptamethyl-15-(2-(morpholinomethyl)furan-3-yl)-2,3,4,4a,5,6,6a,6b,7,8,8a,9,11,13,13a,13b,14,15b-octadecahydro-1H-chryseno[1,2-f]indazole-4-a-carboxylic acid]	1 µg/mL	0.5 µg/mL		
Cc1nnc(S)n1NC(=O)[C@]12CCC(C)(C)CC1C1=CCC3[C@@]4(C)Cc5c(n[nH]c5N)C(C)(C)C4CC[C@@]3(C)[C@]1(C)CC2 (stereo partly drawn) [Compound 77, (4aS,6aS,6bR,13aR)-12-Amino-N-(3-mercapto-5-methyl-4H-1,2,4-triazol-4-yl)-2,2,6a,6b,9,9,13a-heptamethyl-2,3,4,4a,5,6,6a,6b,7,8,8a,9,11,13,13a,13b,14,15b-octadecahydro-1H-chryseno[1,2-f]indazole-4-a-carboxamide]			2 µg/mL (≈ 3.3 µM)	1 µg/mL (≈ 1.65 µM)
CC1(C)CC[C@]2(C(=O)O)CC[C@]3(C)C(=C(c4cn[nH]c4)CC4[C@@]5(C)Cc6c(n[nH]c6N)C(C)(C)[C@@H]5CC[C@]43C)[C@@H]2C1 (stereo partly drawn) [Example 27, (4aS,6aS,6bR,8aR,13aR,15bS)-12-Amino-2,2,6a,6b,9,9,13a-heptamethyl-15-(1H-pyrazol-4-yl)-2,3,4,4a,5,6,6a,6b,7,8,8a,9,11,13,13a,13b,14,15b-octadecahydro-1H-chryseno[1,2-f]indazole-4-a-carboxylic acid]	>2 µg/mL	1 µg/mL		
C[C@@H]1CC[C@]2(C(=O)O)CC[C@]3(C)C(=CCC4[C@@]5(C)C[C@H](CO)[C@H](O)C(C)(C)C5CC[C@]43C)C2[C@H]1C (stereo partly shown) [B]	8 µg/mL	4 µg/mL		
CC1(C)CC[C@]2(C(=O)O)CC[C@]3(C)C(=CC[C@@H]4[C@@]5(C)Cc6c(noc6N)C(C)(C)[C@@H]5CC[C@]43C)[C@@H]2C1 [K]			> 8 µg/mL	> 8 µg/mL
CN1CCN(c2ccc(C3=C4C5CC(C)(C)CC[C@]5(C(=O)O)CC[C@@]4(C)[C@]4(C)CCC5C(C)(C)c6n[nH]c(N)c6C[C@]5(C)C4C3)cc2)CC1 (stereo partly drawn) [Example 53, (4aS,6aS,6bR,13aR)-12-Amino-2,2,6a,6b,9,9,13a-heptamethyl-15-(4-(4-methylpiperazin-1-yl)phenyl)-2,3,4,4a,5,6,6a,6b,7,8,8a,9,11,13,13a,13b,14,15b-octadecahydro-1H-chryseno[1,2-f]indazole-4-a-carboxylic acid]	2 µg/mL	0.5 µg/mL		
CC1(C)CC[C@]2(C(=O)O)CC[C@]3(C)C(=C(c4ccccc4CN4CCOCC4)CC4[C@@]5(C)Cc6c(n[nH]c6N)C(C)(C)[C@@H]5CC[C@]43C)[C@@H]2C1 (stereo partly drawn) [Example 59, (4aS,6aS,6bR,8aR,13aR,15bS)-12-Amino-2,2,6a,6b,9,9,13a-heptamethyl-15-(2-(morpholinomethyl)phenyl)-2,3,4,4a,5,6,6a,6b,7,8,8a,9,11,13,13a,13b,14,15b-octadecahydro-1H-chryseno[1,2-f]indazole-4-a-carboxylic acid]	>1 µg/mL	0.5 µg/mL		
CC1(C)CC[C@]2(C(=O)O)CC[C@]3(C)C(=C(c4ccsc4CN4CCOCC4)CC4[C@@]5(C)Cc6c(n[nH]c6N)C(C)(C)C5CC[C@]43C)C2C1 (stereo partly drawn) [Example 34, (4aS,6aS,6bR,13aR)-12-Amino-2,2,6a,6b,9,9,13a-heptamethyl-15-(2-(morpholinomethyl)thiophen-3-yl)-2,3,4,4a,5,6,6a,6b,7,8,8a,9,11,13,13a,13b,14,15b-octadecahydro-1H-chryseno[1,2-f]indazole-4-a-carboxylic acid]	1 µg/mL	1 µg/mL		
CC1(C)CC[C@]2(C(=O)O)CC[C@]3(C)C(=CCC4[C@@]5(C)CC6=NCN=C6C(C)(C)C5CC[C@]43C)C2C1 (stereo partly shown) [F]			> 8 µg/mL	4 µg/mL (≈ 8.36 µM)
CC1(C)CC[C@]2(C(=O)O)CC[C@]3(C)C(=C(c4ccoc4)CC4[C@@]5(C)Cc6c(n[nH]c6N)C(C)(C)[C@@H]5CC[C@]43C)[C@@H]2C1 (stereo partly drawn) [Example 26, (4aS,6aS,6bR,8aR,13aR,15bS)-12-Amino-15-(furan-3-yl)-2,2,6a,6b,9,9,13a-heptamethyl-2,3,4,4a,5,6,6a,6b,7,8,8a,9,11,13,13a,13b,14,15b-octadecahydro-1H-chryseno[1,2-f]indazole-4-a-carboxylic acid]	1 µg/mL	0.25 µg/mL		
CC1(C)CC[C@]2(C(=O)NO)CC[C@]3(C)C(=CCC4[C@@]5(C)Cc6c(n[nH]c6N)C(C)(C)[C@@H]5CC[C@]43C)[C@@H]2C1 (stereo partly drawn) [Compound 65, (4aS,6aS,6bR,13aR)-12-Amino-N-hydroxy-2,2,6a,6b,9,9,13a-heptamethyl-2,3,4,4a,5,6,6a,6b,7,8,8a,9,11,13,13a,13b,14,15b-octadecahydro-1H-chryseno[1,2-f]indazole-4-a-carboxamide]			0.25 µg/mL (≈ 0.491 µM)	0.25 µg/mL (≈ 0.491 µM)
CN(C)c1cccc(C2=C3C4CC(C)(C)CC[C@]4(C(=O)O)CC[C@@]3(C)[C@]3(C)CCC4C(C)(C)c5n[nH]c(N)c5C[C@]4(C)C3C2)c1 (stereo partly drawn) [Example 21, (4aS,6aS,6bR,13aR)-12-Amino-15-(3-(dimethylamino)phenyl)-2,2,6a,6b,9,9,13a-heptamethyl-2,3,4,4a,5,6,6a,6b,7,8,8a,9,11,13,13a,13b,14,15b-octadecahydro-1H-chryseno[1,2-f]indazole-4-a-carboxylic acid]	>2 µg/mL	0.5 µg/mL		

From patent publication US8324264B1, “Inhibitors of bacterial biofilms and related methods” (Sequoia Sciences, Inc., priority 2011, dated 2012)
